Structures can show the parent of a compound that is named as a salt.
`Cc1ccc(F)c(C(OC2CCN(C)CC2)c2nc3ccccc3[nH]2)c1` (centres unmarked) (as salt: oxalate) [Example 490] gave a melting point of 132 °C.
For `CN1CCC(NC(c2cccc(I)c2)c2nc3ccccc3s2)CC1` (centres unmarked) (as salt: oxalate) [Example 48, [benzothiazol-2-yl(3-iodophenyl)methyl](1-methylpiperidin-4-yl)amine], the melting point was 188 to 195 °C.
Compound `COc1cccc(C(OC2CCN(C)CC2)c2nc3ccccc3s2)c1` (centres unmarked) (as salt: hydrochloride) [Example 11, 2-[(3-methoxyphenyl)(1-methylpiperidin-4-yloxy)methyl]benzothiazole] has a melting point of 182 °C.
`CN1CCC(OC(c2cccc(OCc3cccc(F)c3)c2)c2nc3ccccc3s2)CC1` (centres unmarked) (as salt: oxalate) [Example 171, 2-[[3-(3-fluorobenzyloxy)phenyl](1-methylpiperidin-4-yloxy)methyl]benzothiazole] showed a melting point of 65 °C.
`Cc1ccc2sc(C(OC3CCN(C)CC3)c3ccccc3)nc2c1` (centres unmarked) (as salt: oxalate) [Example 29, 5-methyl-2-[(1-methylpiperidin-4-yloxy)phenylmethyl]benzothiazole] showed a melting point of 175 °C.
Compound `CN1CCC(COC(c2cccc(Br)c2)c2nc3ccccc3s2)C1` (single isomer, unassigned) (as salt: oxalate) [Example 464] has a melting point of 68 °C.
Compound `CN1CCC(OC(c2cccc(SCCCN)c2)c2nc3ccccc3s2)CC1` (centres unmarked) (as salt: oxalate) [Example 314, 3-{3-[benzothiazol-2-yl(1-methylpiperidin-4-yloxy)methyl]phenylsulfanyl}propylamine] has a melting point of 99 °C.
For `CN1CCC(OC(c2cccc(OCC3CCCN(C)C3)c2)c2nc3ccccc3s2)CC1` (centres unmarked) (as salt: oxalate) [Example 379, 2-[[3-(1-methylpiperidin-3-ylmethoxy)phenyl](1-methylpiperidin-4-yloxy)methyl]benzothiazole], the melting point was 76 °C.
For `CCOC(=O)c1cccc(C(OC2CCN(C)CC2)c2nc3ccccc3s2)c1` (centres unmarked) (as salt: oxalate) [Example 206, 3-[benzothiazol-2-yl(1-methylpiperidin-4-yloxy)methyl]benzoic acid ethyl ester], the melting point was 104 °C.
With `COC(=O)c1cccc(C(OC2CCN(C)CC2)c2nc3ccccc3s2)c1` (centres unmarked) (as salt: oxalate) [Example 199, 3-[benzothiazol-2-yl(1-methylpiperidin-4-yloxy)methyl]benzoic acid methyl ester] the melting point was 93 °C.
For `CNCCOc1cccc(C(OC2CCN(C)CC2)c2nc3ccccc3s2)c1` (centres unmarked) (as salt: oxalate) [Example 279, (2-{3-[benzothiazol-2-yl(1-methylpiperidin-4-yloxy)methyl]phenoxy}ethyl)methyl-amine], the melting point was 125 °C.
`CN1CCC(OC(c2cccc(N3CCC(F)C3)c2)c2nc3ccccc3s2)CC1` (centres unmarked) (as salt: oxalate) [Example 430, 2-[[3-(3-fluoropyrrolidin-1-yl)phenyl](1-methylpiperidin-4-yloxy)methyl]benzothiazole] gave a melting point of 70 °C.
With `CN1CCC(OC(c2cccc(N3CCC(N(C)C)C3)c2)c2nc3ccccc3s2)CC1` (centres unmarked) (as salt: oxalate) [Example 484] the melting point was 106 °C.
In the case of `COc1ccc(F)c(C(OC2CCN(C)CC2)c2nc3ccccc3[nH]2)c1` (centres unmarked) (as salt: oxalate) [Example 486], the melting point is reported as 105 °C.
Work on `CN1CCC(OC(c2cccc(C#CCCCCNC(=N)N)c2)c2nc3ccccc3s2)CC1` (centres unmarked) (as salt: hydrochloride) [Example 342, N-(6-{3-[benzothiazol-2-yl(1-methylpiperidin-4-yloxy)methyl]phenyl}hex-5-ynyl)guanidine] yielded a melting point of 185 °C.
Compound `COCCn1c(C(OC2CCN(C)CC2)c2cccc(C#CCCCCN)c2)nc2ccccc21` (centres unmarked) (as salt: oxalate) [Example 501] has a melting point of 109 °C.
Compound `CN1CCC(OC(c2cccc(N3CC4CN(C)CC4C3)c2)c2nc3ccccc3s2)CC1` (centres unmarked) (as salt: oxalate) [Example 485] has a melting point of 131 °C.
`Cc1cc(C(OC2CCN(C)CC2)c2nc3ccccc3s2)ccc1F` (centres unmarked) (as salt: oxalate) [Example 34, 2-[(4-fluoro-3-methylphenyl)(1-methylpiperidin-4-yloxy)methyl]benzothiazole] showed a melting point of 120 °C.
Work on `CN1CCC(OC(c2cccc(-c3ccc(F)cc3)c2)c2nc3ccccc3[nH]2)CC1` (centres unmarked) (as salt: oxalate) [Example 115, 2-[(4′-fluorobiphenyl-3-yl)(1-methylpiperidin-4-yloxy)methyl]-1H-benzimidazole] yielded a melting point of 100 °C.
In the case of `CN1CCC(OC(c2cccc(OCCN3CCN(C(=O)OC(C)(C)C)CC3)c2)c2nc3ccccc3s2)CC1` (centres unmarked) (as salt: oxalate) [Example 329, 4-(2-{3-[benzothiazol-2-yl(1-methylpiperidin-4-yloxy)methyl]phenoxy}ethyl)piperazine-1-carboxylic acid tert-butyl ester], the melting point is reported as 90 °C.
For `CN1CCC(OC(c2nc3ccccc3[nH]2)c2cc(O)ccc2F)CC1` (centres unmarked) (as salt: oxalate) [Example 487], the melting point was 135 °C.
In the case of `CN1CCC(OC(c2cccc(SCCN)c2)c2nc3ccccc3s2)CC1` (centres unmarked) (as salt: oxalate) [Example 269, 2-{3-[benzothiazol-2-yl(1-methylpiperidin-4-yloxy)methyl]phenylsulfanyl}ethylamine], the melting point is reported as 80 °C.
`CN1CCC(NC(c2cccc(OCC3CCCCC3)c2)c2nc3ccccc3s2)CC1` (centres unmarked) (as salt: oxalate) [Example 93, [benzothiazol-2-yl(3-cyclohexylmethoxyphenyl)methyl](1-methylpiperidin-4-yl)amine] showed a melting point of 98 °C.
`CCCOc1cccc(C(OC2CCN(C)CC2)c2nc3ccccc3s2)c1` (centres unmarked) (as salt: hydrochloride) [Example 26, 2-[(1-methylpiperidin-4-yloxy)(3-propoxy-phenyl)methyl]benzothiazole] showed a melting point of 59 °C.
For `CN1CCC(OC(c2cccc(C#N)c2)c2nc3ccccc3s2)CC1` (centres unmarked) (as salt: oxalate) [Example 197, 3-[benzothiazol-2-yl(1-methylpiperidin-4-yloxy)methyl]benzonitrile], the melting point was 75 °C.
Work on `CN1CCC(OC(c2cccc(SCCCCCN)c2)c2nc3ccccc3s2)CC1` (centres unmarked) (as salt: oxalate) [Example 305, 5-{3-[benzothiazol-2-yl(1-methylpiperidin-4-yloxy)methyl]phenylsulfanyl}pentylamine] yielded a melting point of 201 °C.
`CN1CCC(OC(c2cccc(N3CCC(N)C3)c2)c2nc3ccccc3s2)CC1` (centres unmarked) (as salt: oxalate) [Example 429, 1-{3-[benzothiazol-2-yl(1-methylpiperidin-4-yloxy)methyl]phenyl}pyrrolidin-3-ylamine] gave a melting point of 137 °C.
Work on `Cc1cc(F)c(C(OC2CCN(C)CC2)c2nc3ccccc3s2)c(F)c1` (centres unmarked) (as salt: oxalate) [Example 531] yielded a melting point of 125 °C.
With `CN1CCC(OC(c2cccc(Oc3ccccc3)c2)c2nc3ccccc3s2)CC1` (centres unmarked) (as salt: oxalate) [Example 28, 2-[(1-methylpiperidin-4-yloxy)(3-phenoxy-phenyl)methyl]benzothiazole] the melting point was 92 °C.
`CN1CCC(OC(c2ccc3ccccc3c2)c2nc3ccccc3s2)CC1` (centres unmarked) (as salt: hydrochloride) [Example 18, 2-[(1-methylpiperidin-4-yloxy)naphthalen-2-ylmethyl]benzothiazole] gave a melting point of 198 °C.
Work on `CN1CCC(OC(c2nc3ccccc3[nH]2)c2cc(C#CCCCCN)ccc2F)CC1` (centres unmarked) (as salt: oxalate) [Example 557, 6-{3-[(1H-benzimidazol-2-yl)(1-methylpiperidin-4-yloxy)methyl]-4-fluorophenyl}hex-5-ynylamine] yielded a melting point of 195 °C.
With `CN1CCC(OC(c2nc3ccccc3s2)c2cc(OC(F)(F)F)ccc2F)CC1` (centres unmarked) (as salt: oxalate) [Example 526] the melting point was 95 °C.
Work on `CC(C)Oc1cccc(C(NC2CCN(C)CC2)c2nc3ccccc3s2)c1` (centres unmarked) (as salt: oxalate) [Example 88, [benzothiazol-2-yl(3-isopropoxyphenyl)methyl](1-methylpiperidin-4-yl)amine] yielded a melting point of 96 °C.
With `CSc1cccc(-c2cccc(C(OC3CCN(C)CC3)c3nc4ccccc4[nH]3)c2)c1` (centres unmarked) (as salt: oxalate) [Example 116, 2-[(1-methylpiperidin-4-yloxy)(3′-methylsulfanylbiphenyl-3-yl)methyl]-1H-benzimidazole] the melting point was 80 °C.
In the case of `CN1CCC(OC(c2cccc(N3CCOCC3)c2)c2nc3ccccc3s2)CC1` (centres unmarked) (as salt: oxalate) [Example 243, 2-[(1-methylpiperidin-4-yloxy)(3-morpholin-4-yl-phenyl)methyl]benzothiazole], the melting point is reported as 111 °C.
With `CCOC(=O)NCCCCC#Cc1cccc(C(OC2CCN(C)CC2)c2nc3ccccc3n2C)c1` (centres unmarked) (as salt: oxalate) [Example 549, ethyl (6-{3-[(1-methyl-1H-benzimidazol-2-yl)(1-methylpiperidin-4-yloxy)methyl]phenyl}hex-5-ynyl)carbamate] the melting point was 90 °C.
In the case of `CN1CCC(OC(c2ccc3occc3c2)c2nc3ccccc3s2)CC1` (centres unmarked) (as salt: oxalate) [Example 46, 2-[benzofuran-5-yl(1-methylpiperidin-4-yloxy)methyl]benzothiazole], the melting point is reported as 153 °C.
`CCc1cccc(C(OC2CCN(C)CC2)c2nc3ccccc3s2)c1` (centres unmarked) (as salt: oxalate) [Example 152, 2-[(3-ethylphenyl)(1-methylpiperidin-4-yloxy)methyl]benzothiazole] showed a melting point of 123 °C.
In the case of `CN1CCC(OC(c2cccc(OCCCCCN)c2)c2nc3ccccc3[nH]2)CC1` (centres unmarked) (as salt: oxalate) [Example 400, 5-{3-[(1H-benzimidazol-2-yl)(1-methylpiperidin-4-yloxy)methyl]phenoxy}pentylamine], the melting point is reported as 111 °C.
`CN1CCC(OC(c2nc3ccccc3s2)c2c(F)cc(Cl)cc2F)CC1` (centres unmarked) (as salt: oxalate) [Example 532] gave a melting point of 158 °C.
`COc1cc(F)cc(C(NC2CCN(C)CC2)c2nc3ccccc3s2)c1` (centres unmarked) (as salt: oxalate) [Example 43, [benzothiazol-2-yl(3-fluoro-5-methoxyphenyl)methyl](1-methylpiperidin-4-yl)amine] gave a melting point of 157 °C.

From patent US8802664B2 (Bioproject, priority 2010, dated 2014)
